Columns and labels:
[1] = 25° C., cited from earlier work; for Solubility of Parabens, Ethanol: solvent ethanol; for Solubility of Parabens, Propylene glycol: solvent propylene glycol; for Solubility of Parabens, Water: solvent water
[2] = format: physicochemical; settings: pH 4.5
Experimental: This water was used as a test media for determining the solubility of test/reference items. Stock solutions of concentration 1 mg/mL for test items/reference items was prepared in methanol. The stock solution will be used for preparation of calibration curve standards. Calibration curve of test/reference items was prepared by serially dilution consisting of 4-5-6 concentrations in 96 well format. […] The method was as follows: Calibration curve of test items were prepared by serial dilution consisting of 8 concentrations. […] Water, 50:50). […] 40 mg of test items were weighed into tubes. […] The initial pH of the solubility samples were recorded. […] Then, the solutions were observed visually for any precipitation. […] An aliquot of the supernatant were diluted with equal volume of methanol. […] The samples were then transferred to UV plate and scanned at λmax of that particular test/reference item. Compound #12 was transferred to auto-sampler vials and submitted for LC-MS/MS analysis.

[3] = tested on: Escherichia coli (ATCC 8739); assay: Anti-bacterial Minimum Inhibitory Concentration (MIC) Method, microbroth dilution; format: cell-based; settings: Table 1; CAMHB, 37° C., 24 hours, pH 4.5-adjusted stock
Experimental: (§1) Anti-Bacterial and Anti-Fungal Minimum Inhibitory Concentration (MIC) Method Method: Microbroth Dilution Method (96-well format). Test item: […] Solvent: Sterile MilliQ water and 0.1 M Citrate Buffer pH 4.5 Media used: • Bacterial: Cation-Adjusted Mueller-Hinton Broth (CAMHB) • Fungi: RPMI-1640 […] Fungi: • Incubation Temperature: • 25° C. (Candida albicans) • 35° C. (Aspergillus brasiliensis) • Incubation Time: 48 hours • Inoculum Size: 5×10^4 cfu/mL • Strains: • Candida albicans (ATCC 10231) • Aspergillus brasiliensis (ATCC 16404) • End point: Inhibition of growth, Spectrophotometer Reading @ 600 nm • Reference standards: […] All solubilized and pH 4.5-adjusted test compounds were filter-sterilized before subjecting to MIC study. […] All the strains were inoculated on their respective agar medium and incubated under conditions/durations detailed above. • Preparation of inoculum: • The bacterial colony suspension in 0.85% saline was adjusted to 1 McFarland's standard using […] which was further diluted to 1:100 in CAMHB. The fungal suspension for inoculation was prepared in 0.85% saline from 6 days old culture (for mold, A. brasiliensis) and from 2 days old culture (for yeast, C. albicans) from Sabouraud Dextrose agar medium. […] Micro titer plates were prepared as per the CLSI recommendations. One hundred and seventy five microliters of Cation-adjusted Muller Hinton Broth (CAMHB) was added to the first column of a 96 well flat bottom plate, which is the media control. Second column is for the stocks of the test compounds and reference standards from which dilutions are made. Then 175 μL of CAMHB was added to the 5th, 8th and 11th columns, 75 μL of CAMHB to the 4th, 7th and 10th columns and 50 μL of CAMHB to the 3rd, 6th and 9th columns and the last column was the organism control.

[4] = tested on: Pseudomonas aeruginosa (ATCC 9027); assay: as above; format: cell-based; settings: Table 1; CAMHB, 37° C., 24 hours, pH 4.5-adjusted stock
Experimental: as §1

[5] = tested on: Staphylococcus aureus (ATCC 6538); assay: as above; format: cell-based; settings: Table 1; CAMHB, 37° C., 24 hours, pH 4.5-adjusted stock
Experimental: as §1

[6] = tested on: Burkholderia cepacia (ATCC 25416); assay: as above; format: cell-based; settings: Table 1; CAMHB, 37° C., 24 hours, pH 4.5-adjusted stock
Experimental: as §1

[7] = tested on: Aspergillus brasiliensis (ATCC 16404); assay: Anti-fungal Minimum Inhibitory Concentration (MIC) Method, microbroth dilution; format: cell-based; settings: Table 1; RPMI-1640, 35° C., 48 hours, pH 4.5-adjusted stock
Experimental: (§2) Anti-Bacterial and Anti-Fungal Minimum Inhibitory Concentration (MIC) Method Method: Microbroth Dilution Method (96-well format). Test item: […] Solvent: Sterile MilliQ water and 0.1 M Citrate Buffer pH 4.5 Media used: • Bacterial: Cation-Adjusted Mueller-Hinton Broth (CAMHB) • Fungi: RPMI-1640 Fungi: • Incubation Temperature: • 25° C. (Candida albicans) • 35° C. (Aspergillus brasiliensis) • Incubation Time: 48 hours • Inoculum Size: 5×10^4 cfu/mL • Strains: • Candida albicans (ATCC 10231) • Aspergillus brasiliensis (ATCC 16404) • End point: Inhibition of growth, Spectrophotometer Reading @ 600 nm • Reference standards: […] All solubilized and pH 4.5-adjusted test compounds were filter-sterilized before subjecting to MIC study. […] All the strains were inoculated on their respective agar medium and incubated under conditions/durations detailed above. • Preparation of inoculum: • The bacterial colony suspension in 0.85% saline was adjusted to 1 McFarland's standard using […] which was further diluted to 1:100 in CAMHB. The fungal suspension for inoculation was prepared in 0.85% saline from 6 days old culture (for mold, A. brasiliensis) and from 2 days old culture (for yeast, C. albicans) from Sabouraud Dextrose agar medium. […] Micro titer plates were prepared as per the CLSI recommendations. One hundred and seventy five microliters of Cation-adjusted Muller Hinton Broth (CAMHB) was added to the first column of a 96 well flat bottom plate, which is the media control. Second column is for the stocks of the test compounds and reference standards from which dilutions are made. Then 175 μL of CAMHB was added to the 5th, 8th and 11th columns, 75 μL of CAMHB to the 4th, 7th and 10th columns and 50 μL of CAMHB to the 3rd, 6th and 9th columns and the last column was the organism control.

[8] = tested on: Candida albicans (ATCC 10231); assay: as above; format: cell-based; settings: Table 1; RPMI-1640, 25° C., 48 hours, pH 4.5-adjusted stock
Experimental: as §2

[9] = Determination of Dissociation Constant (pKa) by Potentiometric Titration Method; format: physicochemical; settings: ultrapure water, pH 4.5, Table 1, 0.1 mg/ml, 22° C.
Experimental: Potentiometric Titration Method: A calibrated pH meter was used for the assay. 50 mL solution of each test/reference item solution (0.1 mg/mL) was added to four beakers (two for acid titration and two for base titration). 0.1 N Sodium hydroxide (NaOH) solution was prepared as titrant solution. The pH electrode was placed into the beaker containing test/reference item solution. The initial pH of the solution will be recorded. 100 μL of 0.1 N NaOH was added successively with stirring and the pH at each addition was recorded. Base titrations were carried out individually in duplicates until a sudden shift in the pH was observed.

Row | Structure (SMILES) | Solubility of Parabens, Ethanol [1] | Solubility of Parabens, Propylene glycol [1] | Solubility of Parabens, Water [1] | Solubility (wt %) [2] | MIC (%) E. coli [3] | MIC (%) P. aeruginosa [4] | MIC (%) S. Aureus [5] | MIC (%) B. cepacia [6] | MIC (%) A. brasiliensis [7] | MIC (%) C. albicans [8] | pKa [9]
1 | CCOC(=O)c1ccc(O)cc1 [Ethylparaben] | 41 % w/w | 20 % w/w | 0.11 % w/w |  |  |  |  |  |  |  | 
2 | CCCCOC(=O)c1ccc(O)cc1 [Butylparaben] | 68 % w/w | 49 % w/w | 0.02 % w/w |  |  |  |  |  |  |  | 
3 | O=C(O)c1ccc(OCCCCO)cc1 [Compound 6, 4-(4-hydroxybutoxy) benzoic acid] |  |  |  | 0.0667 wt % | 0.04% | 0.04% | 0.01% | 0.02% | >0.04% | >0.04% | 4.6

— patent publication US11252960B2 (KIMBERLY-CLARK WORLDWIDE, INC., priority 2017, dated 2022)
